{"source": "patent US10945427B2", "about": "“Trehalose and dextran-containing solution for transplanting mammalian cells” (OTSUKA PHARMACEUTICAL FACTORY, INC., priority 2013, dated 2021)", "data": [{"system": "Human mesenchymal stem cells from bone marrow [hMSC-BM]", "experiment": "Cell survival rate of hMSC-BM preserved in solution for cell transplantation (Trypan blue)", "assay_type": "cell-based", "conditions": "hMSC-BM preserved for 14 days; saccharide-containing Lactec injection without trehalose or dextran", "method": "Human mesenchymal stem cells from bone marrow [hMSC-BM] (from Lonza Co., Ltd.) were prepared according the procedures described in [1] to [8] below and used in the present experiment.\n[1] hMSC-BM were cultured in a 5% CO2 incubator at 37° C. in the presence of a medium kit specific for human mesenchymal stem cells (from Lonza Co., Ltd.) (hereinafter referred to as “MSC medium”) using a 75-cm^2 flask. The state of the cells was observed under a microscope, and culture was performed until a confluent state of about 80% was reached.\n[2] The […] was removed using an aspirator, and hMSC-BM were rinsed with 8 mL/flask of PBS (from Invitrogen Co., Ltd.).\n[4] Swing was carried out in a slow manner while hMSC-BM were observed under a microscope until about 90% thereof were detached.\nCentrifugation was carried out at 600×g and 25° C. for 5 minutes.\n[7] The MSC medium as the supernatant was removed using an aspirator, and 4 mL/flask of PBS (from Invitrogen Co., Ltd.) was added, followed by suspending an hMSC-BM pellet (precipitate).\n[8] 10 μL of the hMSC-BM suspension was taken; the number of the cells was measured using a cell counter; and PBS (from Invitrogen Co., Ltd.) was added thereto to 5×10^5 cells/mL, which was then cooled with ice.\n[1] The hMSC-BM suspension prepared in the step [7] of the “1-1-3 Preparation of Mammalian Cell” described above was dispensed into a 15-mL conical centrifuge tube using […] (100 to 1,000 μL) and centrifuged at 600×g and 25° C. for 5 minutes.\n[2] The supernatant after centrifugation treatment was aspirated/removed, and the resultant was suspended in each of the 11 solutions for cell transplantation and then preserved in a refrigerator (under conditions of 4° C.) for […]. To measure the cell survival rate before preservation, the supernatant after centrifugation treatment was aspirated/removed, and the resultant was then suspended in PBS (from Invitrogen Co., Ltd.), immediately followed by taking a portion (20 μL) of the suspension, mixing the portion with 20 μL of Trypan blue stain solution (from Gibco Co., Ltd.), and then measuring the total number of the cells and the number of dead cells using a cell counter under a microscope to evaluate the rate of living cells (see “P” in FIG. 1).\n[3] After preserving hMSC-BM in the solution for cell transplantation for 14 days, stirring (5 times pipetting at a liquid volume of 500 μL) was gently performed in a state in which the end of a tip was inserted to a position visually at on the order of 5 mm from the bottom to make cells in a suspended state, and a portion (20 μL) of the suspension was taken into a 1.5-mL microtube, mixed with 20 μL of Trypan blue stain solution (from Gibco Co., Ltd.), and then measured for the total number of the cells and the number of dead cells using a cell counter under a microscope to evaluate the rate of living cells.", "values": [{"smiles": "OC[C@H]1O[C@@H](O[C@H]2[C@H](O)[C@@H](O)C(O)O[C@@H]2CO)[C@H](O)[C@@H](O)[C@H]1O", "note": "(stereo partly drawn) [lactose]", "effect of saccharide used alone on cell death, FIG. 7": "had not the effect of suppressing cell death"}, {"smiles": "OC[C@H]1O[C@H](O[C@H]2[C@H](O)[C@@H](O)[C@H](O)O[C@@H]2CO)[C@H](O)[C@@H](O)[C@@H]1O", "note": "[maltose]", "effect of saccharide used alone on cell death, FIG. 7": "had not the effect of suppressing cell death"}, {"smiles": "OC[C@@H](O)[C@@H](O)[C@H](O)[C@H](O)CO", "note": "[mannitol]", "effect of saccharide used alone on cell death, FIG. 7": "had not the effect of suppressing cell death"}, {"smiles": "OC[C@H]1O[C@H](OC[C@H]2O[C@H](O[C@]3(CO)O[C@H](CO)[C@@H](O)[C@@H]3O)[C@H](O)[C@@H](O)[C@@H]2O)[C@H](O)[C@@H](O)[C@H]1O", "note": "[raffinose]", "effect of saccharide used alone on cell death, FIG. 7": "had not the effect of suppressing cell death"}, {"smiles": "OC[C@@H](O)[C@@H](O)[C@H](O)[C@@H](O)CO", "note": "[sorbitol]", "effect of saccharide used alone on cell death, FIG. 7": "had not the effect of suppressing cell death"}, {"smiles": "OC[C@H]1O[C@@](CO)(O[C@H]2O[C@H](CO)[C@@H](O)[C@H](O)[C@H]2O)[C@@H](O)[C@@H]1O", "note": "[sucrose]", "effect of saccharide used alone on cell death, FIG. 7": "had not the effect of suppressing cell death"}]}]}
